Measurements published in ChEMBL document CHEMBL3137667, “[Drug-induced liver injury; fourteenth updated edition of the bibliographic database of liver injuries and related drugs]” (Gastroenterol Clin Biol, 2004).

Columns and labels:
[1] = Highest frequency of moderate liver toxicity observed during clinical trials, expressed as a percentage. [column '% BIOL' in source]; conditions: human
[2] = Highest frequency of acute liver toxicity observed during clinical trials, expressed as a percentage. [column '% AIGUE' in source]; conditions: human
[3] = Presence of at least one case with successful reintroduction. [column 'REINT' in source]; conditions: human
[4] = Comments (NB not yet translated). [column 'COMMENTAIRES' in source]; conditions: human
[5] = Times to onset, minimal and maximal, observed in the indexed observations. [column 'DELAI' in source]; conditions: human
[6] = Proposed mechanism(s) of liver damage. [column 'MEC' in source]; conditions: human
[7] = human, serum
[8] = human, serum; remark: listed apart in the source
[9] = human
[10] = human; remark: listed apart in the source
[11] = human; remark: listed apart in the source
[12] = human, serum, 4383 h
[13] = human; remark: listed apart in the source
[14] = human; remark: listed apart in the source
[15] = human; remark: listed apart in the source
[16] = human; remark: listed apart in the source
[17] = human; remark: listed apart in the source
[18] = human; remark: listed apart in the source
[19] = human; remark: listed apart in the source
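For Hepatotoxicity (association with vascular disease) in this document: count of indexed literature references reporting vascular liver injury in humans, e.g. peliosis hepatitis, hepatic veno-occlusive disease or Budd-Chiari syndrome.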
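For Hepatotoxicity (benign tumour) in this document: value is a count of indexed literature references citing a benign tumour confirmed by histopathology.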
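For Hepatotoxicity (choleostasis) in this document: human cholestatic liver injury, shown by histopathology or by peak ALT or AST elevation over alkaline phosphatase ratio below 2, value counts indexed literature reports.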
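For Hepatotoxicity (chronic liver disease) in this document: chronic liver injury confirmed by histopathology or persistently raised serum aminotransferase activity beyond 6 months, value given as the count of indexed literature references.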
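For Hepatotoxicity (cirrhosis) in this document: value is a count of indexed literature references reporting cirrhosis confirmed by histopathology.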
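For Hepatotoxicity (cytolytic) in this document: human cytolytic liver injury, shown by histopathology or by a ratio above 5 of peak ALT or AST elevation to alkaline phosphatase elevation, value counts indexed references.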
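For Hepatotoxicity (granulomatous hepatitis) in this document: value is a count of indexed literature references reporting granulomatous liver disease confirmed by histopathology.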
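For Hepatotoxicity (malignant tumour) in this document: malignant tumour confirmed by histopathology, value gives the count of indexed literature references reporting it.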
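For Hepatotoxicity (severe hepatitis) in this document: human clinical data: severe hepatitis, meaning potentially life-threatening liver failure or clinically observed cases, the value counts how many indexed literature references report it.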
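For Hepatotoxicity (steatosis) in this document: steatosis confirmed by histopathology, value is the count of indexed references.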

Compound	Hepatotoxicity (moderate) [1]	Hepatotoxicity (acute) [2]	Hepatotoxicity (successful reintroduction) [3]	Hepatotoxicity (comment) [4]	Hepatotoxicity (time to onset) [5]	Hepatotoxicity (mechanism) [6]	Hepatotoxicity (moderate) [7]	Hepatotoxicity (acute) [8]	Hepatotoxicity (cytolytic) [9]	Hepatotoxicity (choleostasis) [10]	Hepatotoxicity (severe hepatitis) [11]	Hepatotoxicity (chronic liver disease) [12]	Hepatotoxicity (cirrhosis) [13]	Hepatotoxicity (granulomatous hepatitis) [14]	Hepatotoxicity (association with vascular disease) [15]	Hepatotoxicity (steatosis) [16]	Hepatotoxicity (malignant tumour) [17]	Hepatotoxicity (benign tumour) [18]	Hepatotoxicity (animal toxicity known) [19]
CC[C@]1(O)C[C@H]2CN(CCc3c([nH]c4ccccc34)[C@@](C(=O)OC)(c3cc4c(cc3OC)N(C=O)[C@H]3[C@@](O)(C(=O)OC)[C@H](OC(C)=O)[C@]5(CC)C=CCN6CC[C@]43[C@@H]65)C2)C1 [VINCRISTINE]	7.3%	0%	yes	I/RADIOTHERAPIE REACTIVATION_HVB	3 days - 20 days	Dose-dependant	3	5	4	0	4	0	0	0	7	0	1	0	yes
ALDESLEUKIN	100%	35.7%	yes	CHOLECYSTITE PERICHOLANGITE	1 day - 2 years	Allergic, Dose-dependant	58	14	6	6	1	0	1	0	0	1	0	0	yes
CISPLATIN	93%	7%	yes	CHOLANGITE/IAH	1 day - 2 weeks	Dose-dependant	23	3	2	1	1	0	0	0	2	1	0	0	yes
